Experimental data taken from PubChem BioAssay AID2060900 (Molecular Pharmacology Branch, DTP, NCI, 2025).
One block for each molecule: values may come before it.

Test system: 521955-158-R2-J5-PDC complex spheroids, viability
Test: Anticancer human tumor 521955-158-R2-J5-PDC patient-derived pancreatic carcinoma cell line growth inhibition [RAS]
Settings: for IC50: curve of first compound; for viability, T/C: stronger effect = lower value
In short: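 Multi-cell-type spheroids: tumor cells plus HUVEC endothelial cells and mesenchymal stem cells. RAS-pathway inhibitors were combined with targeted agents, each dosed in half-log steps down from clinical Cmax, or from 10 microM when Cmax was unknown.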

[1] = second compound 0.00316 µM, first compound 0.000949 µM
[2] = second compound 0.00316 µM, first compound 0.003 µM
[3] = second compound 0.00316 µM, first compound 0.00949 µM
[4] = second compound 0.00316 µM, first compound 0.03 µM
[5] = second compound 0.00316 µM, first compound 0.0949 µM
[6] = second compound 0.00316 µM, first compound 0.3 µM
[7] = second compound 0.01 µM, first compound 0.000949 µM
[8] = second compound 0.01 µM, first compound 0.003 µM
[9] = second compound 0.01 µM, first compound 0.00949 µM
[10] = second compound 0.01 µM, first compound 0.03 µM
[11] = second compound 0.01 µM, first compound 0.0949 µM
[12] = second compound 0.01 µM, first compound 0.3 µM
[13] = second compound 0.0316 µM, first compound 0.000949 µM
[14] = second compound 0.0316 µM, first compound 0.003 µM
[15] = second compound 0.0316 µM, first compound 0.00949 µM
[16] = second compound 0.0316 µM, first compound 0.03 µM
[17] = second compound 0.0316 µM, first compound 0.0949 µM
[18] = second compound 0.0316 µM, first compound 0.3 µM
[19] = second compound 0.1 µM, first compound 0.000949 µM
[20] = second compound 0.1 µM, first compound 0.003 µM
[21] = second compound 0.1 µM, first compound 0.00949 µM
[22] = second compound 0.1 µM, first compound 0.03 µM
[23] = second compound 0.1 µM, first compound 0.0949 µM
[24] = second compound 0.1 µM, first compound 0.3 µM
[25] = second compound 0.316 µM, first compound 0.000949 µM
[26] = second compound 0.316 µM, first compound 0.003 µM
[27] = second compound 0.316 µM, first compound 0.00949 µM
[28] = second compound 0.316 µM, first compound 0.03 µM
[29] = second compound 0.316 µM, first compound 0.0949 µM
[30] = second compound 0.316 µM, first compound 0.3 µM
[31] = second compound 1 µM, first compound 0.000949 µM
[32] = second compound 1 µM, first compound 0.003 µM
[33] = second compound 1 µM, first compound 0.00949 µM
[34] = second compound 1 µM, first compound 0.03 µM
[35] = second compound 1 µM, first compound 0.0949 µM
[36] = second compound 1 µM, first compound 0.3 µM
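Also: compound exposure lasted seven days before the viability read.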
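For viability, T/C in this document: spheroids also contain HUVEC endothelial cells and mesenchymal stem cells as stroma.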

IC50 (second compound 0.00316 µM): < 0.0316 µM
IC50 (second compound 0.01 µM): < 0.0316 µM
IC50 (second compound 0.0316 µM): < 0.0316 µM
IC50 (second compound 0.1 µM): < 0.0316 µM
IC50 (second compound 0.316 µM): < 0.0316 µM
IC50 (second compound 1 µM): < 0.0316 µM
Structure (SMILES): CC(=O)OC12COC1CC(O)C1(C)C(=O)C(O)C3=C(C)C(OC(=O)C(O)C(NC(=O)OC(C)(C)C)c4ccccc4)CC(O)(C(OC(=O)c4ccccc4)C21)C3(C)C (stereo unspecified) + C=CC(=O)N1CCN(c2nc(OCC3CCCN3C)nc3c(F)c(-c4nc(N)cc(C)c4C(F)(F)F)c(Cl)cc23)C(C)C1
viability, T/C (second compound 0.00316 µM, first compound 0.0316 µM): 37.3%
viability, T/C (second compound 0.00316 µM, first compound 0.1 µM): 34.1%
viability, T/C (second compound 0.00316 µM, first compound 0.316 µM): 24.9%
viability, T/C (second compound 0.00316 µM, first compound 1 µM): 29.8%
viability, T/C (second compound 0.00316 µM, first compound 3.16 µM): 40.8%
viability, T/C (second compound 0.00316 µM, first compound 10 µM): 64.4%
viability, T/C (second compound 0.01 µM, first compound 0.0316 µM): 38.5%
viability, T/C (second compound 0.01 µM, first compound 0.1 µM): 34.3%
viability, T/C (second compound 0.01 µM, first compound 0.316 µM): 21.5%
viability, T/C (second compound 0.01 µM, first compound 1 µM): 30.6%
viability, T/C (second compound 0.01 µM, first compound 3.16 µM): 41.4%
viability, T/C (second compound 0.01 µM, first compound 10 µM): 52.6%
viability, T/C (second compound 0.0316 µM, first compound 0.0316 µM): 39.7%
viability, T/C (second compound 0.0316 µM, first compound 0.1 µM): 40.6%
viability, T/C (second compound 0.0316 µM, first compound 0.316 µM): 28.2%
viability, T/C (second compound 0.0316 µM, first compound 1 µM): 29.7%
viability, T/C (second compound 0.0316 µM, first compound 3.16 µM): 44.9%
viability, T/C (second compound 0.0316 µM, first compound 10 µM): 44.9%
viability, T/C (second compound 0.1 µM, first compound 0.0316 µM): 34.3%
viability, T/C (second compound 0.1 µM, first compound 0.1 µM): 31.5%
viability, T/C (second compound 0.1 µM, first compound 0.316 µM): 33.1%
viability, T/C (second compound 0.1 µM, first compound 1 µM): 25.6%
viability, T/C (second compound 0.1 µM, first compound 3.16 µM): 35.8%
viability, T/C (second compound 0.1 µM, first compound 10 µM): 59.3%
viability, T/C (second compound 0.316 µM, first compound 0.0316 µM): 38.4%
viability, T/C (second compound 0.316 µM, first compound 0.1 µM): 33.9%
viability, T/C (second compound 0.316 µM, first compound 0.316 µM): 21.7%
viability, T/C (second compound 0.316 µM, first compound 1 µM): 34.6%
viability, T/C (second compound 0.316 µM, first compound 3.16 µM): 46.1%
viability, T/C (second compound 0.316 µM, first compound 10 µM): 51.9%
viability, T/C (second compound 1 µM, first compound 0.0316 µM): 31.8%
viability, T/C (second compound 1 µM, first compound 0.1 µM): 32.3%
viability, T/C (second compound 1 µM, first compound 0.316 µM): 19.1%
viability, T/C (second compound 1 µM, first compound 1 µM): 22%
viability, T/C (second compound 1 µM, first compound 3.16 µM): 46.3%
viability, T/C (second compound 1 µM, first compound 10 µM): 55.5%

IC50 (second compound 0.00316 µM): > 0.3 µM
IC50 (second compound 0.01 µM): > 0.3 µM
IC50 (second compound 0.0316 µM): > 0.3 µM
IC50 (second compound 0.1 µM): > 0.3 µM
IC50 (second compound 0.316 µM): > 0.3 µM
IC50 (second compound 1 µM): > 0.3 µM
Structure (SMILES): CC1(C)CCC(Nc2ncc(C(F)(F)F)c(-c3c[nH]c4c(P(C)(C)=O)c(C#N)ccc34)n2)CN1 (stereo unspecified) + C=CC(=O)N1CCN(c2nc(OCC3CCCN3C)nc3c(F)c(-c4nc(N)cc(C)c4C(F)(F)F)c(Cl)cc23)C(C)C1
viability, T/C [1]: 80.7%
viability, T/C [2]: 73.7%
viability, T/C [3]: 67.7%
viability, T/C [4]: 51.1%
viability, T/C [5]: 49.5%
viability, T/C [6]: 53.3%
viability, T/C [7]: 81.2%
viability, T/C [8]: 78.5%
viability, T/C [9]: 52.6%
viability, T/C [10]: 53%
viability, T/C [11]: 58.3%
viability, T/C [12]: 60.4%
viability, T/C [13]: 75.4%
viability, T/C [14]: 78.7%
viability, T/C [15]: 57.5%
viability, T/C [16]: 55.8%
viability, T/C [17]: 73%
viability, T/C [18]: 53.8%
viability, T/C [19]: 90%
viability, T/C [20]: 86.3%
viability, T/C [21]: 57.9%
viability, T/C [22]: 64.2%
viability, T/C [23]: 65.8%
viability, T/C [24]: 56.9%
viability, T/C [25]: 84.5%
viability, T/C [26]: 76.5%
viability, T/C [27]: 51.3%
viability, T/C [28]: 65.3%
viability, T/C [29]: 67%
viability, T/C [30]: 49.2%
viability, T/C [31]: 106%
viability, T/C [32]: 77.5%
viability, T/C [33]: 56.3%
viability, T/C [34]: 51.9%
viability, T/C [35]: 63.9%
viability, T/C [36]: 55.4%

IC50 (second compound 0.00316 µM): 0.00229 µM
IC50 (second compound 0.01 µM): 0.00237 µM
IC50 (second compound 0.0316 µM): 0.00347 µM
IC50 (second compound 0.1 µM): 0.0025 µM
IC50 (second compound 0.316 µM): 0.00221 µM
IC50 (second compound 1 µM): 0.00282 µM
Structure (SMILES): CCc1c2c(nc3ccc(O)cc13)-c1cc3c(c(=O)n1C2)COC(=O)[C@]3(O)CC + C=CC(=O)N1CCN(c2nc(OCC3CCCN3C)nc3c(F)c(-c4nc(N)cc(C)c4C(F)(F)F)c(Cl)cc23)C(C)C1
viability, T/C [1]: 82.8%
viability, T/C [2]: 39.5%
viability, T/C [3]: 20.3%
viability, T/C [4]: 7.87%
viability, T/C [5]: 6.75%
viability, T/C [6]: 6.61%
viability, T/C [7]: 68.7%
viability, T/C [8]: 45.3%
viability, T/C [9]: 18.4%
viability, T/C [10]: 8.97%
viability, T/C [11]: 8.82%
viability, T/C [12]: 4.69%
viability, T/C [13]: 72.5%
viability, T/C [14]: 55.2%
viability, T/C [15]: 13.7%
viability, T/C [16]: 11.2%
viability, T/C [17]: 8.98%
viability, T/C [18]: 5.11%
viability, T/C [19]: 63%
viability, T/C [20]: 47.7%
viability, T/C [21]: 15.2%
viability, T/C [22]: 9.23%
viability, T/C [23]: 6.92%
viability, T/C [24]: 5.21%
viability, T/C [25]: 83.2%
viability, T/C [26]: 38%
viability, T/C [27]: 13%
viability, T/C [28]: 6.67%
viability, T/C [29]: 7.68%
viability, T/C [30]: 4.95%
viability, T/C [31]: 84.2%
viability, T/C [32]: 48.2%
viability, T/C [33]: 13.4%
viability, T/C [34]: 9.97%
viability, T/C [35]: 6.39%
viability, T/C [36]: 4.12%
